26 compounds from patent US11590116B2 (THERAVANCE BIOPHARMA R&D IP, LLC, priority 2019, dated 2023) can be followed below.

The test system of test [1] is TGF-β-stimulated SMAD3 phosphorylation in BEAS-2B cells. In words: Cellular ALK5 potency assay, inhibition of TGF-β stimulated pSMAD3 formation in BEAS-2B cells. The format is cell-based. Conditions: Homo sapiens; inhibition of TGF-β stimulated pSMAD3 formation, BEAS-2B cells; read-out: BEAS2B pIC50 (converted). In a few lines:
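Potency is reported as pIC50, derived from concentration-dependent reduction of pSMAD3 AlphaLISA signal against TGF-β-stimulated cells without compound. BEAS-2B cells received compound for 1 h before a 30-min stimulation with 10 ng/mL TGF-β.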

Test [2] has as its target T1, recombinant human ALK5 (TGF-βR1) protein (Homo sapiens, UniProt P36897).
T1 construct: purchased Life Technologies PR9075A
T1 sequence (P36897 34-503): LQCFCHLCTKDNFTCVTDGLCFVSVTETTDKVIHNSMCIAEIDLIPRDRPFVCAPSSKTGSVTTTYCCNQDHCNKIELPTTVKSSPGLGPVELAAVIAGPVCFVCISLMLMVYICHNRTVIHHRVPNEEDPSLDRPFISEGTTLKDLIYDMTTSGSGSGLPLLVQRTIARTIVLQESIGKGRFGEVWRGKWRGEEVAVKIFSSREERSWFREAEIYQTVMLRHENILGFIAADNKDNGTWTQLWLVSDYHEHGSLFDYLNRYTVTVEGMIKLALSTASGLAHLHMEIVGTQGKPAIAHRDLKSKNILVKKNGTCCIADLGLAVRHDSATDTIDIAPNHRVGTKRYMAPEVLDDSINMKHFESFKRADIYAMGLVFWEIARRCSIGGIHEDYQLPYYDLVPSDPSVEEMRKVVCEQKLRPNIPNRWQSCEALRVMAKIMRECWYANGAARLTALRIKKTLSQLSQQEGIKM
Put plainly: Biochemical ALK5 (TGF-βR1) assay to measure pKi (LANCE Ultra ULight kinase assay). As to conditions: apparent pKi from pIC50 by Cheng-Prusoff, read-out: ALK5 pKi (converted). In a few lines:
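Dose range 10 μM–25 pM; enzyme + compound 60 min RT; ATP added (5× stock 125 μM, 2 mM DTT); 60 min 37 °C; stop with EDTA + Eu anti-phospho-Topo IIα Thr1342 Ab; TR-FRET ex 320/340, em 665 nm. 4-param pIC50 → pKi (Cheng-Prusoff).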
(Time-resolved FRET reads energy transfer from a long-lived donor to a nearby acceptor.)

With `Cc1cccc(-c2n[nH]cc2-c2ccc3ncc(Nc4ccc(N5CCNCC5)cc4)cc3c2)n1` [Compound 488, 6-[3-(6-methyl-2-pyridyl)-1H-pyrazol-4-yl]-N-(4-piperazin-1-ylphenyl)quinolin-3-amine], in test [1], the IC50 is 25.1 to 158 nM. The Ki in test [2] was 0.0398 to 0.316 nM.

As to `Cc1cccc(-c2[nH]ncc2-c2ccc3ncc(C(=O)OCCN4CCN5CCCC5C4)cc3c2)n1` (stereo not shown) [Compound 1234, 2-(3,4,6,7,8,8a-hexahydro-1H-pyrrolo[1,2-a]pyrazin-2-yl)ethyl 6-[5-(6-methyl-2-pyridyl)-1H-pyrazol-4-yl]quinoline-3-carboxylate], the IC50 in test [1] is 25.1 to 158 nM. Also, the Ki in test [2] was 0.0398 to 0.316 nM.

As to `Cc1cccc(-c2[nH]cnc2-c2ccc3ncc(-c4csc(C(=O)OC[C@H]5CCCNC5)c4)cc3c2)n1` [Compound 1253, [(3S)-3-piperidyl]methyl 4-[6-[5-(6-methyl-2-pyridyl)-1H-imidazol-4-yl]-3-quinolyl]thiophene-2-carboxylate], in test [1], the IC50 is 25.1 to 158 nM. Moreover, in test [2], the Ki is below 0.0316 nM.

On to `Cc1cccc(-c2[nH]nnc2-c2ccc3ncc(-c4cnn(C5CCCNC5)c4)cc3n2)n1` (stereo not shown) [Compound 602, 2-[5-(6-methyl-2-pyridyl)-1H-triazol-4-yl]-7-[1-(3-piperidyl)pyrazol-4-yl]-1,5-naphthyridine], for which, in test [1], the IC50 is 200 to 1260 nM. In test [2], the Ki is below 0.0316 nM.

Consider `Cc1cccc(-c2n[nH]cc2-c2ccc3nccc(C4CO[C@H]5CNC[C@@H]5N4)c3n2)n1` (mixture of isomers) [Compound 861, rac-(4aS,7aS)-3-[6-[3-(6-methyl-2-pyridyl)-1H-pyrazol-4-yl]-1,5-naphthyridin-4-yl]-2,3,4,4a,5,6,7,7a-octahydropyrrolo[3,4-b][1,4]oxazine], for which the IC50 in test [1] was 200 to 1260 nM. For the same compound, the Ki in test [2] is 3.98 to 31.6 nM.

`Cc1cccc(-c2n[nH]cc2-c2ccc3ncc(NCCN4CCCC4(C)C)cc3n2)n1` [Compound 31, N-[2-(2,2-dimethylpyrrolidin-1-yl)ethyl]-6-[3-(6-methyl-2-pyridyl)-1H-pyrazol-4-yl]-1,5-naphthyridin-3-amine]: the IC50 in test [1] is 25.1 to 158 nM. Besides, the Ki in test [2] was below 0.0316 nM.

In the case of `Cc1cccc(-c2[nH]cnc2-c2ccc3ncc(C4=CCC(NCc5ccccc5)CC4)cc3c2)n1` (stereo not shown) [Compound 252, N-benzyl-4-[6-[5-(6-methyl-2-pyridyl)-1H-imidazol-4-yl]-3-quinolyl]cyclohex-3-en-1-amine], in test [1], the IC50 was 25.1 to 158 nM. The Ki in test [2] was below 0.0316 nM.

For `Cc1cccc(-c2[nH]cnc2-c2ccc3ncc(-c4ccc(C(=O)OCC5CNC5)nc4)cc3c2)n1` [Compound 54, azetidin-3-ylmethyl 5-[6-[5-(6-methyl-2-pyridyl)-1H-imidazol-4-yl]-3-quinolyl]pyridine-2-carboxylate], in test [1], the IC50 was 200 to 1260 nM. Moreover, the Ki in test [2] is 0.0398 to 0.316 nM.

For the compound `CNCCn1cc(-c2cnc3ccc(-c4c[nH]nc4-c4cccc(C(F)F)n4)nc3c2)cn1` [Compound 481, 2-[4-[6-[3-[6-(difluoromethyl)-2-pyridyl]-1H-pyrazol-4-yl]-1,5-naphthyridin-3-yl]pyrazol-1-yl]-N-methyl-ethanamine], the IC50 in test [1] is 25.1 to 158 nM. For the same compound, the Ki in test [2] is below 0.0316 nM.

As for `Cc1cccc(-c2n[nH]cc2-c2ccc3ncc(N4CCC(N5CCCC5)CC4)cc3n2)n1` [Compound 335, 2-(3-(6-methylpyridin-2-yl)-1H-pyrazol-4-yl)-7-(4-(pyrrolidin-1-yl)piperidin-1-yl)-1,5-naphthyridine], the IC50 in test [1] is 25.1 to 158 nM. Besides, in test [2], the Ki was below 0.0316 nM.

For the compound `CCC(=O)Nc1cnc2ccc(-c3c[nH]nc3-c3cccc(C)n3)nc2c1` [Compound 234, N-[6-[3-(6-methyl-2-pyridyl)-1H-pyrazol-4-yl]-1,5-naphthyridin-3-yl]propanamide], in test [1], the IC50 was below 20 nM. For the same compound, the Ki in test [2] was below 0.0316 nM.

Turning to `Cc1cccc(-c2nnn(C)c2-c2ccc3ncc(N4CCNCC4)cc3c2)n1` [Compound 86, 6-[3-methyl-5-(6-methyl-2-pyridyl)triazol-4-yl]-3-piperazin-1-yl-quinoline], the IC50 in test [1] was 25.1 to 158 nM. In addition, the Ki in test [2] is 0.398 to 3.16 nM.

For the compound `Cc1nc(-c2n[nH]cc2-c2ccc3ncc(-c4nnn5c4CNCC5)cc3n2)ccc1F` [Compound 466, 2-[3-(5-fluoro-6-methyl-2-pyridyl)-1H-pyrazol-4-yl]-7-(4,5,6,7-tetrahydrotriazolo[1,5-a]pyrazin-3-yl)-1,5-naphthyridine], in test [1], the IC50 is 25.1 to 158 nM. In addition, in test [2], the Ki is 0.0398 to 0.316 nM.

On to `Cc1cccc(-c2n[nH]cc2-c2ccc3nccc(N(C)CCCN4CCOCC4)c3n2)n1` [Compound 848, N-methyl-6-[3-(6-methyl-2-pyridyl)-1H-pyrazol-4-yl]-N-(3-morpholinopropyl)-1,5-naphthyridin-4-amine], for which the IC50 in test [1] is 200 to 1260 nM. In addition, the Ki in test [2] is 0.0398 to 0.316 nM.

`Cc1cccc(-c2n[nH]cc2-c2ccc3ncc(Br)cc3n2)n1` [Compound 323, 7-bromo-2-[3-(6-methyl-2-pyridyl)-1H-pyrazol-4-yl]-1,5-naphthyridine]: the IC50 in test [1] is below 20 nM. The Ki in test [2] is 0.0398 to 0.316 nM.

For the compound `C=C(CN1CCNCC1)c1cnc2ccc(-c3nc[nH]c3-c3cccc(C)n3)cc2c1` [Compound 256, 6-[5-(6-methyl-2-pyridyl)-1H-imidazol-4-yl]-3-[1-(piperazin-1-ylmethyl)vinyl]quinoline], in test [1], the IC50 is 25.1 to 158 nM. Besides, in test [2], the Ki is 0.0398 to 0.316 nM.

In the case of `Cc1cccc(-c2[nH]cnc2-c2ccc3ncc(N4CCC(C(=O)OCC5CNC5)CC4)cc3c2)n1` [Compound 424, azetidin-3-ylmethyl 1-[6-[5-(6-methyl-2-pyridyl)-1H-imidazol-4-yl]-3-quinolyl]piperidine-4-carboxylate], the IC50 in test [1] is 200 to 1260 nM. Moreover, in test [2], the Ki is 0.0398 to 0.316 nM.

`Cc1cccc(-c2[nH]ncc2-c2ccc3ncc(C(=O)OCCN4CCN(C(C)C)CC4)cc3n2)n1` [Compound 389, 2-(4-isopropylpiperazin-1-yl)ethyl 6-[5-(6-methyl-2-pyridyl)-1H-pyrazol-4-yl]-1,5-naphthyridine-3-carboxylate]: the IC50 in test [1] is 25.1 to 158 nM. Further, in test [2], the Ki was 0.0398 to 0.316 nM.

Regarding `Cc1cccc(-c2n[nH]cc2-c2ccc3ncc(-c4cn5c(n4)CN(CCN)CC5)cc3n2)n1` [Compound 427, 2-[2-[6-[3-(6-methyl-2-pyridyl)-1H-pyrazol-4-yl]-1,5-naphthyridin-3-yl]-6,8-dihydro-5H-imidazo[1,2-a]pyrazin-7-yl]ethanamine], the IC50 in test [1] is 200 to 1260 nM. Besides, the Ki in test [2] is 0.0398 to 0.316 nM.

Turning to `CNCCn1cc(-c2cnc3ccc(-c4c(-c5cccc(C)n5)nn5c4NCC5)cc3c2)cn1` [Compound 632, N-methyl-2-[4-[6-[6-(6-methyl-2-pyridyl)-2,3-dihydro-1H-imidazo[1,2-b]pyrazol-7-yl]-3-quinolyl]pyrazol-1-yl]ethanamine], the IC50 in test [1] is 25.1 to 158 nM. Also, in test [2], the Ki was 0.0398 to 0.316 nM.

Consider `Cc1nc(-c2nc3ccccn3c2-c2ccc3ncc(Br)cc3n2)ccc1F` [Compound 453, 7-bromo-2-[2-(5-fluoro-6-methyl-2-pyridyl)imidazo[1,2-a]pyridin-3-yl]-1,5-naphthyridine], for which the IC50 in test [1] is 1580 to 10000 nM. The Ki in test [2] is 0.398 to 3.16 nM.

As to `Cc1cccc(-c2[nH]cnc2-c2ccc3ncc(-c4ccnc(C(=O)OC5CCNCC5)c4)cc3c2)n1` [Compound 799, 4-piperidyl 4-[6-[5-(6-methyl-2-pyridyl)-1H-imidazol-4-yl]-3-quinolyl]pyridine-2-carboxylate], the IC50 in test [1] is 200 to 1260 nM. Further, the Ki in test [2] is 0.0398 to 0.316 nM.

Regarding `Cc1cccc(-c2[nH]cnc2-c2ccc3ncc(C(=O)OCCCN4CCCC4)cc3c2)n1` [Compound 738, 3-pyrrolidin-1-ylpropyl 6-[5-(6-methyl-2-pyridyl)-1H-imidazol-4-yl]quinoline-3-carboxylate], the IC50 in test [1] is 25.1 to 158 nM. Moreover, the Ki in test [2] is 0.0398 to 0.316 nM.

Regarding `Cc1cccc(-c2n[nH]cc2-c2ccc3ncc(N4CCC5NCCC5C4)cc3n2)n1` (stereo not shown) [Compound 151, 7-(1,2,3,3a,4,6,7,7a-octahydropyrrolo[3,2-c]pyridin-5-yl)-2-[3-(6-methyl-2-pyridyl)-1H-pyrazol-4-yl]-1,5-naphthyridine], in test [1], the IC50 is 25.1 to 158 nM. Further, the Ki in test [2] was 0.0398 to 0.316 nM.

Consider `Cc1cccc(-c2[nH]cnc2-c2ccc3ncc(C4=CCC(NC(C)C)CC4)cc3n2)n1` (stereo not shown) [Compound 258, N-isopropyl-4-(6-(5-(6-methylpyridin-2-yl)-1H imidazol-4-yl)-1,5-naphthyridin-3-yl)cyclohex-3-en-1-amine], for which the IC50 in test [1] is 25.1 to 158 nM. Also, the Ki in test [2] was below 0.0316 nM.

For the compound `Cc1cccc(-c2[nH]cnc2-c2ccc3ncc(N4CCNC(CC(=O)OCC(C)C)C4)cc3c2)n1` (stereo not shown) [Compound 690, isobutyl 2-[4-[6-[5-(6-methyl-2-pyridyl)-1H-imidazol-4-yl]-3-quinolyl]piperazin-2-yl]acetate], in test [1], the IC50 is 25.1 to 158 nM. In test [2], the Ki was 0.0398 to 0.316 nM.
